These results are taken from patent US10450570B2, “Compositions and methods for controlling vasculature” (YALE UNIVERSITY, priority 2016, dated 2019).

One experiment deals with orthotopic Panc02 tumors. Description: Murine orthotopic pancreatic tumor model, peritumoral lymphatics (LYVE1). The settings on record: oral, 30 mg/kg/day, compared to vehicle controls. Format: in vivo, mouse. The protocol: The murine pancreatic tumor cell line Panc02 was obtained from Prof. Wiedenmann (Charité University Hospital, Berlin). 1×10^6 tumor cells were injected subcapsularly in the head region of the pancreas of anaesthetized female C57Bl/6 mice (7-9 weeks old, Charles River, France) using a 30-gauge needle. At day 3 after tumor inoculation, tumor-bearing mice were treated daily with SSR (30 mg/kg/day) or vehicle (0.6% methylcellulose) via oral gavage. At day 9, primary tumors were removed, weighted, and tumor volumes (V) were calculated using the formula V=0.52×(a^2×b), where a represents the smallest tumour diameter and b represents the largest tumour diameter. The incidence of tumor invasion into adjacent organs, hemorrhagic ascites, and regional celiac and mesenteric lymph node metastases were recorded, and confirmed by immunohistochemistry on paraffin sections. Paraffin-embedded […] sections were prepared and used for immunohistochemistry using the following antibodies: anti-LYVE1 (Upstate-Cell Signaling Solutions, Bio-connect, Huissen, The Netherlands) and anti-VEGFR3 (eBiosciences). The lymph vessel area in the peritumoral area was analysed using the KS300 software (Zeiss).

For the next experiment, the system named is zebrafish. Description: Lymphatic development in zebrafish embryos. Format: in vivo. The conditions noted are these: 0.25 μM, 53 hpf Tg (fli1a:EGFP) embryos, vs DMSO.
The test system of experiment [1] is HDLECs. Description: Glycolytic flux measurement (5-3H-glucose). Format: cell-based, human. The protocol:
(§1) Glycolysis was measured as previously described. Briefly, subconfluent HDLECs cultured in 12-well plates were incubated with 1 ml/well EBM2 medium (containing appropriate amount of serum and supplement) with 80 μCi/mmol 5-^3H-glucose (Perkin Elmer) for 2-3 hr. Then 0.8 ml/well medium was transferred into glass vials with hanging wells and filter papers soaked with H2O. After incubation in a cell culture incubator for at least 2 days to reach saturation, filter papers were taken out and the amount of evaporated ^3H2O was measured in a scintillation counter. Glucose oxidation, glutamine oxidation and fatty acid oxidation were measured essentially as reported. For measurement of glucose uptake, HDLECs were incubated with 2-[1-^14C]-deoxy-D-glucose (2.5 μCi/ml, Perkin Elmer) for 10 min. before PBS washing (at least 3 times to get rid of all radioactive medium) and then lysis with 500 μL 0.1 N NaOH. 400 μl NaOH cell lysate for each sample was transferred to scintillation vials containing scintillation liquid and measured.

Experiment [2] has as its system HDLECs. Description: Glucose uptake measurement (2-[1-14C]-deoxy-D-glucose). Format: cell-based, human. The protocol:
as §1

In experiment [3] the test system is HDLECs. Description: Mass spectrometry of glycolytic metabolites and ATP. Format: cell-based, human. Here is the method:
HDLECs were quenched by a rapid wash with ice-cold PBS and then collected in 150 μl of an ice-cold solution containing 20% methanol, 0.1% formic acid, 1 mM phenylalanine, 3 mM NaF and 100 μM EDTA. ^2H4-Taurine (10 μM, CDN Isotopes) was used as a loading control. All the samples were lyophilized and resuspended in 50 μL of water prior the LC-MS/MS analysis. Samples were injected onto a Cogent Diamond Hydride™ column (2.2 μm particle size, 2.1 mm×10 cm) at a flow rate of 0.5 mL/min. Glycolytic intermediates were eluted isocratically with a 95% aqueous/5% organic solvent mixture. The aqueous solution contained 15 mM ammonium formate. The organic solution contained 60% acetonitrile, 35% isopropyl alcohol and 15 mM ammonium formate. Samples were ionized by electrospray into an ABSCIEX 5500 QTRAP equipped with a SelexION for differential mobility separation (DMS) and acquired using multiple reaction monitoring (MRM) in negative mode, as described previously. DMS-based separation of fructose-6-phosphate from glucose-6-phosphate, as well as the separation of ATP, ADP and AMP nucleotides, was achieved using no modifier. Isopropyl alcohol was used as modifier for the DMS-based separation of the remaining glycolytic intermediates. […]

The test system of experiment [4] is HK2 and other glycolytic enzymes in HDLECs. Description: Western blot of glycolytic enzyme expression in HDLECs. Format: cell-based, human. The conditions noted are these: protein. Here is the method:
(§2) Human dermal lymphatic endothelial cells (HDLECs, HMVEC-dLyNeo-Der Lym Endo EGM-2MV) and Pooled human umbilical vein endothelial cells (HUVECs) were purchased from Lonza and cultured in EBM2 basal medium with EGM-2 MV BulletKit. Both cell types were tested negative for mycoplasma in Lonza. Culture medium was changed every the other day. Tissue culture plates were coated with 0.1% gelatin (Sigma) for 30 min at 37° C. and washed with Dulbecco's Phosphate-Buffered Saline (Life Technologies) before cell plating. For siRNA-mediated gene knockdown, FGFR1 siRNA (ON-TARGETplus human FGFR1 siRNA, Dharmacon; Hs_FGFR1_6, Qiagen), FGFR3 siRNA (Hs_FGFR3_6, Qiagen), HK2 siRNA (s6562 human HK2 siRNA, Life Technologies), c-Myc siRNA (ON-TARGETplus human Myc siRNA, Dharmacon), AllStar negative control siRNA (Qiagen), and ON-TARGETplus Non-targeting pool (Dharmacon) were transfected by lipofectamine RNAimax reagent (Life Technologies). Human FGF2 was provided by Kaken Pharmaceutical Co, Ltd (Japan) and ordered from Peprotech. Human VEGFC, VEGFD, IGF1, IGF2 and PDGFBB were purchased from Peprotech. To assay the effect of FGFR1 knockdown on glycolytic enzyme expression, HDLECs, transfected with control or FGFR1 siRNA 3 days in advance, were replated and collected for protein analysis 24 hr later when the cell confluency reached ˜80%. […] ImageJ was used for densitometry quantification of western blot bands.

The next experiment relates to HUVECs. Description: Glycolytic flux measurement in HUVECs. Format: cell-based, human.
The subject of experiment [5] is HK2 and other glycolytic enzymes in HUVECs. Description: Western blot of glycolytic enzyme expression in HUVECs. Format: cell-based, human. Here is the method: as §2
A general note: Immunoblotting shows a protein as a band on a membrane.

Experiment [6] deals with HDLECs. Description: Three-dimensional bead sprouting assay. Format: cell-based, human. The conditions noted are these: control siRNA HDLEC-coated beads. The protocol:
HDLECs were trypsinized and mixed with collagen-coated Cytodex® microcarrier beads (Sigma) in a ratio of 2500 beads to 1×10^6 cells in warm EGM-2 medium in a 15 ml falcon tube. The mixture was incubated at 37° C. for 4 hr., with shaking every 20 min. to ensure even coating of the beads. After 4 hr., the coated beads were transferred to a 6-well plate in 2 ml of EGM-2 medium per well and incubated at 37° C. overnight. The next day, coated beads were embedded into a fibrinogen gel. For each well of a 24-well plate, 300 μl of 3 mg/mL fibrinogen in PBS was used, along with 100 μg/ml of aprotinin (Sigma) and 1.5 unit/ml of thrombin (Sigma). Approximately 250 coated beads were embedded in each well. The plate was then incubated at 37° C. for one hr. to generate a clot. After the gel solidified, human lung fibroblasts in EGM-2 medium were seeded on top at a concentration of 20,000 cells/well. The medium was changed every other day (full EGM-2 medium with 200 ng/mL of FGF2), and the plates were imaged on day 6 using a spinning disk confocal microscope (Perkin Elmer). ImageJ was used to measure the sprout length for the data analysis.

The next experiment relates to mouse cornea. Description: Corneal lymphangiogenesis model. Format: in vivo. The conditions noted are these: FGF2-containing pellets implanted, 1 week. Here is the method: Slow-releasing pellets containing FGF2 were made as previously described (Tang, Z. et al. JoVE, (2011)). Surgery to implant the pellets into the mouse cornea was performed as reported (Cao, R. et al. Nature protocols 6, 817-826, (2011)). Adult Prox1-CreER^T2(KI); HK2^flox/flox and control mice were i.p. injected with tamoxifen (150 μg/g body weight) every the other day (seven injections total) before the cornea surgery. 1 week after the pellet implantation, eyeballs were harvested for cornea dissection and immunostaining with LYVE1 (Angiobio, #11-034) and PECAM1 (BD Pharmigen, #553370) antibodies and then used for imaging (spinning disk confocal microscopy) and quantification analysis (ImageJ).

The next experiment deals with Myc expression in HDLECs. Description: Western blot of Myc expression in HDLECs. Format: cell-based, human. The protocol:
as §2

Experiment [7] has as its system Myc binding to the HK2 E-boxes in HDLECs. Description: ChIP-qPCR of Myc binding to the HK2 gene. Format: cell-based, human. Here is the method:
ChIP assays were performed using SimpleChIP® Plus Enzymatic Chromatin IP Kit (Cell Signaling) according to manufacturer's protocol with some minor modifications. Basically cells cultured on 20-cm dishes were fixed for 10 min by adding 37% formaldehyde solution to the culture medium to a final concentration of 1%. Fixation was quenched with glycine for 5 min at room temperature. Cells were washed twice with ice-cold PBS, scraped into 2 ml PBS, and centrifuged at 5,000 rpm for 10 min. The cell pellets from two 20-cm dishes were combined and lysed in 1 ml lysis buffer. The lysate was then centrifuged at 5,000 rpm for 5 min at 4° C. and the pellet was resuspended in 100 μl nuclease digestion buffer. The DNA was digested with 0.5 μl of Micrococcal Nuclease for 20 min at 37° C. to a length of approximately 150-900 bp (checked by agarose gel electrophoresis). Lysates were centrifuged and the pellet was resuspended in 500 μl ChIP buffer and sonicated for 3×30 s at power level 2 and 40% constancy. […] The amount of precipitated DNA from each sample was quantified by qPCR using primers flanking the Myc binding element in the HK2 gene. The reading was normalized to that of DNA purified from the previously saved cross-linked chromatin (2% input). The reading by DNA from IP using Myc antibody against that from IgG IP indicated the antibody efficiency for ChIP assay. […]
(In general: In qPCR the cycle at which signal appears reflects the starting amount.)

The test system of another experiment is Myc expression in HUVECs. Description: Western blot of Myc expression in HUVECs. Format: cell-based, human. Here is the method: as §2

For `COc1c(C)c(C(=O)c2ccc(N)c(C(=O)[O-])c2)n2ccccc12.[Na+]` [SSR128129E], the “lymphatic vasculature in the peri-tumoral area (LYVE1)” value in the experiment on orthotopic Panc02 tumors is recorded as “significant reduction of the lymphatic vasculature in the peri-tumoral area”.
Regarding `Cc1c[nH]c(/C=C2\C(=O)Nc3ccccc32)c1CCC(=O)O` [SU5402], the “lymphatic development in zebrafish (parachordal line length)” value in the experiment with zebrafish is on record as “impairs lymphatic development in zebrafish”.
Regarding “FGF2: Human FGF2 provided by Kaken Pharmaceutical and ordered from Peprotech”, in the experiment with HDLECs [1], the glycolytic flux result is “doubled”. Further, in the experiment with HDLECs [2], the glucose uptake entry is listed as “significantly increased glucose uptake”. In the experiment with HDLECs [3], the ATP production result is reported as “increased”; the “steady-state levels of glycolytic metabolites and lactate” value is reported as “all increased by FGF2 stimulation”. Further, in experiment [4], the “glycolytic enzyme (HK2) expression” value is given as “robust increase in HK2 expression, with minimal changes of other enzymes' expression”. Further, the “glycolysis in HUVECs” value in the experiment on HUVECs is reported as “enhanced glycolysis”. Moreover, the “HK2 protein expression in HUVECs” value in experiment [5] is reported as “selectively induced HK2 expression albeit to a lesser extent than in LECs”. In the experiment with HDLECs [6], the sprouting response result is given as “induced a strong sprouting response”. In addition, in the experiment on mouse cornea, the “lymphangiogenesis in the mouse cornea” value is “induced robust stimulation of lymphangiogenesis”. Also, in the experiment on Myc expression in HDLECs, the Myc protein expression entry is “increased Myc protein expression”. The “amount of Myc binding to the HK2 E-boxes” value in experiment [7] was “increased by FGF2 treatment”. Besides, the “Myc expression in HUVECs” value in the experiment on Myc expression in HUVECs is reported as “increased Myc expression”.
Regarding “IGF1: insulin-like growth factor 1, purchased from Peprotech”, in the experiment with HDLECs [1], the glycolytic flux entry is recorded as “no effect”.
The same measure, in the same setting: next, “IGF2: insulin-like growth factor 2, purchased from Peprotech”: “reduced flux”.
